Data set [1] deals with somatic L1 retrotransposition. Kind of data set: SYBR Green-based intronless EGFP qPCR on liver DNA of ORFeus reporter bearing Fah-/- mice. The note with it: 1 mg/kg IP twice weekly from NTBC withdrawal; liver samples after three months; preliminary results. The class given is in vivo. The source says:
Multiple qPCR-based methods have already been published offering the possibility to measure the amount of intron-free EGFP copies produced during retrotransposition of the ORFeus reporter (Mita, Sun et al. 2020). Based on these published methods, we have also started to quantify our results.
NTBC was withdrawn after hydrodynamic plasmid delivery.
To measure the retrotransposition events of the synthetic L1 element we carried out genomic exon-exon junction qPCR analysis of the spliced, intronless EGFP using two different qPCR detection chemistry. SYBR Green based qPCR was done using PerfeCTa SYBR Green SuperMix (Quantabio). Cycling conditions were as follows: 95° C. for 7 min, 4 cycles of 10 s at 95° C., 15 s at 66° C. (−1° C./cycle, no acquisition), followed by 40 cycles of 5 s at 95° C., 10 s at 62° C. The following primers were used: […]
Probe-based qPCR detection was done as previously described (Mita, Sun et al. 2020) using PerfeCTa qPCR ToughMix (Quantabio). All qPCR reactions were performed on a Rotor-Gene Q instrument (Qiagen) in triplicates using 87 ng of gDNA. Analysis was carried out with the Rotor-Gene Q software (Qiagen). Relative changes in expression levels were calculated using the ΔCT method (Livak and Schmittgen 2001) SYBR Green and probe-based qPCR results were normalized to measurements of the Olfr16 and Rpl21 internal control genes, respectively.
For orientation: In qPCR the cycle at which signal appears reflects the starting amount.

The test system of data set [2] is somatic L1 retrotransposition. Kind of data set: FACS measurement of EGFP-positive hepatocytes isolated from ORFeus carrying Fah-/- mice. Conditions: 1 million hepatocytes per sample; Decitabine 1 mg/kg IP twice weekly.
Method: For evaluating alternative detection methods we investigated the outcome of Decitabine (5-aza-2′-deoxycytidine) treatments in the assay of the invention. 10 Fah^−/− animals were injected hydrodynamically and after NTBC withdrawal, 5 were started on Decitabine and 5 animals were kept without drug treatment as a control group. Under our current drug treatment regime administration of drugs starts at the same time as NTBC withdrawal.
To test this approach, 2-2 animals from Decitabine-treated and control experimental groups were subjected to liver perfusion and hepatocyte isolation.
Mice were housed under 12 h light-dark cycle at 22° C. with free access to water and regular rodent chow. […] Fah^−/− mice were treated with 8 mg/l Orfadin® (Nitisinone, NTBC) (Swedish Orphan Biovitrum) in drinking water. NTBC was withdrawn after hydrodynamic plasmid delivery. […] Dosing, scheduling, and the route of administration of all drugs and chemical compounds were determined according to the manufacturer's instructions and literature data. […] The body weight of the mice was monitored continuously. […]
Procurement of liver for hepatocyte isolation was done under sodium pentobarbital (Nembutal) (Sigma Aldrich) anaesthesia. […] Cell numbers were determined using a Burker chamber. Cell viability was determined by trypan blue exclusion test. […]
The test system of data set [3] is somatic L1 retrotransposition. Kind of data set: Stereomicroscopic macrovisualization of EGFP positive hepatocyte colonies in liver of Fah-/- mice carrying the ORFeus reporter. The class given is in vivo. Conditions: 5 mg/kg IP twice weekly from NTBC withdrawal; livers examined after 3 months. The source says: In these proof of concept studies the present inventors have used an L1-ORF2-free ORFeus and amiR-free construct variant (shown in FIG. 3B). First, the ORFeus-expressing transposon and the hyperPB transposase helper plasmid were co-delivered hydrodynamically into the liver of Fah^−/− mice, then the curative drug nitisinone (NTBC) was withdrawn (FIG. 2A). In those hepatocytes where hydrodynamic transfection is successful, the hyperactive transposase helper enzyme is likely to catalyse the “cut and paste” transposition reaction presumably leading to an integration into the host chromosomes (Skipper, Andersen et al. 2013).
FICZ was administered by intraperitoneal (IP) injection at a dose of 5 mg/kg body weight twice weekly. […]
The results of EGFP macrovisualization were summarized in FIG. 5 for the control, FICZ-treated and MeIQx-treated experimental groups. The number of EGFP-positive hepatocyte cell colonies detectable by stereomicroscopy in the liver of each animal was counted and per-animal values were plotted on a box diagram. […]
Pictures of whole mouse livers were taken with an Olympus SZX12 fluorescence stereozoom microscope equipped with a 100 W mercury lamp and filter sets for selective excitation and emission of GFP and mCherry.

The next data set deals with Tp53 gene. Kind of data set: Tp53 silencing by amiR element. Details: species or system mouse. The source says: For example, silencing of the Tp53 gene can attenuate the P53 L1 sensor (Ardeljan, Steranka et al. 2020) (FIG. 1B), without completely inactivating it. Such an effect is predicted to increase the tolerance of somatic cells to ORFeus reporter expression. We have developed three efficient Tp53 silencing amiR elements. Of these, amiR-mP53/1 capable to produce approximately 20% remaining Tp53 gene expression is currently being tested in our laboratory. Presumably, it will be able to increase the sensitivity of the somatic L1 activity measuring system. However, its application is not essential. Our results so far, at least in our in vivo system, are in conflict with the finding of the authors describing the role of the P53 sensor stating that wild-type retinal pigment epithelium-1 (RPE) cells undergo a TP53-dependent growth arrest in response to L1 (Ardeljan, Steranka et al. 2020). In contrast, ORFeus expressing mouse liver cells are able to regenerate the liver in the absence of p53 silencing (FIG. 3B).

“Also recorded” adds a separate entry of the source.

`Nc1ncn([C@H]2C[C@H](O)[C@@H](CO)O2)c(=O)n1` [Decitabine, 5-aza-2′-deoxycytidine]: in data set [1], the “induction of somatic L1 retrotransposition (amount of intron-free EGFP copies, normalized to Olfr16)” value was “weak inducer”. Further, the “number of EGFP-expressing cells by FACS compared to controls” value in data set [2] is recorded as “higher number; also recorded: confirmed the results obtained with qPCR”.

Consider `O=Cc1c2c(cc3c1=Nc1ccccc1-3)=Nc1ccccc1-2` [FICZ, 6-Formylindolo[3,2-b]carbazole], for which the “number of EGFP fluorescent (ORFeus retrotransposition bearing) hepatocyte colonies in liver as compared to non-drug-treated controls” value in data set [3] is “more EGFP fluorescent colonies; also recorded: higher number”.

Regarding `Cc1cnc2ccc3c(nc(N)n3C)c2n1` [MeIQx, 2-Amino-3,8-Dimethylimidazo[4,5.f]Quinoxaline], the “number of EGFP fluorescent (ORFeus retrotransposition bearing) hepatocyte colonies in liver as compared to non-drug-treated controls” value in data set [3] is “higher number”.

B1: amiR-mP53/1: Tp53 silencing artificial microRNA (amiR) element, SEQ ID NO: 19 (nucleic acid)
DNA: GGGCCCGTGTACCGGTGTGTGAGCTCTGTTTGAATGAGGCTTCAGTACTTTACAGAATCGTTGCCTGCACATCTTGGAAACACTTGCTGGGATTACTTCTTCAGGTTAACCCAACAGAAGGCTCGAGAAGGTATATTGCTGTTGACAGTGAGCGATCACTGCATGGACGATCTGTTTAGTGAAGCCACAGATGTAAACAGATCGTCCATGCAGTGAGTGCCTACTGCCTCGGACTTCAAGGGGCTACTTTAGGAGCAATTATCTTGTTTACTAAAACTGAATACCTTGCTATCTCTTTGATACATTTTTACAAAGCTGAATTAAAATGGTATAAATTAAATCACTTTGTCGACGTGTTCTAGAGTGTGCCGGC
modifications: misc_feature 27..121 Endogenous miR30a 5' flanking; misc_feature 155..176 Target with N1 A mismatch; stem_loop 177..195 loop; misc_feature 196..217 guide; misc_feature 238..347 Endogenous miR30a 3' flanking; amiR-mP53/1 element
Take B1: in the data set on Tp53 gene, the “remaining Tp53 gene expression” value is given as “approximately 20%”.

The values are drawn from patent US20250223610A1, “MEASUREMENT OF SOMATIC L1 RETROTRANSPOSITION ACTIVITY” (SZEGEDI BIOLÓGIAI KUTATÓKÖZPONT, priority 2022, published 2025).
